Assay results taken from article PMC7190724, “Improved GPCR ligands from nanobody tethering” (Nature Communications, 2020).
Values joined by “and” are separate entries in the source; they are usually repeats but may differ in a detail not shown here. Equal entries are not always repeated. Blank lines part the entries; values can stand above or below the compound they belong to. Where a SMILES comes first, the peptide text is derived from it. [ ]: non-standard residue; d: D form. Aib = CC(C)(N)C(=O)O

Key:
PTHR1YFPΔECD = target: T1, PTHR1YFPΔECD (Homo sapiens, UniProt Q03431); assay: cAMP response (GloSensor luminescence), HEK293 stably expressing PTHR1YFPΔECD (GD5Y); assay type: cell-based; conditions: peak GloSensor luminescence; mean ± SD, ≥3 independent experiments; read-out: EC50, cAMP induction
T1 construct: expressed in transfected cells; host or cells: HEK293 (clone GD5Y) with GloSensor cAMP reporter
T1 sequence (Q03431 with tags, fused parts or gaps limits assumed): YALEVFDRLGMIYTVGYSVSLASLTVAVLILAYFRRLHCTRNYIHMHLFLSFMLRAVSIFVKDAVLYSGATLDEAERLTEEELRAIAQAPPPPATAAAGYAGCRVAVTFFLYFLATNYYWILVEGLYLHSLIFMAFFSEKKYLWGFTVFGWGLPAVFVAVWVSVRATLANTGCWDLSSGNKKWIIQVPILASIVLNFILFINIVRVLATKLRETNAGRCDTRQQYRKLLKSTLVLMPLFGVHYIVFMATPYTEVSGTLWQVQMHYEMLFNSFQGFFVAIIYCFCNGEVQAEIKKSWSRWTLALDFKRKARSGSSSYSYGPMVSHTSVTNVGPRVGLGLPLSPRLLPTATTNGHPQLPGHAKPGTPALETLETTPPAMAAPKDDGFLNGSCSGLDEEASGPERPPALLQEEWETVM
Method: (§1) A HEK293 cell line stably expressing β-Arrestin2-YFP (GBR24) was constructed similarly. PTHR1_6E was produced using the Q5 Site-directed mutagenesis kit (NEB) and used to prepare a stably transfected HEK293-derived cell line. Annotated sequence data for all PTHR1 constructs are found in Supplementary Fig. 19. Aligned sequences of VHHs used in this study are shown in Supplementary Fig. 20.
(§2) These assays were performed as previously described. […] Confluent monolayers of cells were pre-incubated with CO2 independent medium containing D-luciferin (0.5 mM) at 37 °C until a stable baseline level of luminescence was established (20 min). Varying concentrations of ligands were then added, and the time course of luminescence response was recorded using BioTek plate reader.
(§3) Data were processed using Microsoft Excel and GraphPad Prism 6. Data from cAMP dose–response assays were analyzed using a sigmoidal dose–response model with variable slope. Data sets were statistically compared by using Student’s t test (two-tailed) assuming unequal variances for the two sets.

PTHR1GFP = target: T2, PTHR1GFP (Homo sapiens, UniProt Q03431); assay: cAMP response (GloSensor luminescence), HEK293 stably expressing PTHR1GFP (GPG10); assay type: cell-based
T2 sequence (Q03431 27-593): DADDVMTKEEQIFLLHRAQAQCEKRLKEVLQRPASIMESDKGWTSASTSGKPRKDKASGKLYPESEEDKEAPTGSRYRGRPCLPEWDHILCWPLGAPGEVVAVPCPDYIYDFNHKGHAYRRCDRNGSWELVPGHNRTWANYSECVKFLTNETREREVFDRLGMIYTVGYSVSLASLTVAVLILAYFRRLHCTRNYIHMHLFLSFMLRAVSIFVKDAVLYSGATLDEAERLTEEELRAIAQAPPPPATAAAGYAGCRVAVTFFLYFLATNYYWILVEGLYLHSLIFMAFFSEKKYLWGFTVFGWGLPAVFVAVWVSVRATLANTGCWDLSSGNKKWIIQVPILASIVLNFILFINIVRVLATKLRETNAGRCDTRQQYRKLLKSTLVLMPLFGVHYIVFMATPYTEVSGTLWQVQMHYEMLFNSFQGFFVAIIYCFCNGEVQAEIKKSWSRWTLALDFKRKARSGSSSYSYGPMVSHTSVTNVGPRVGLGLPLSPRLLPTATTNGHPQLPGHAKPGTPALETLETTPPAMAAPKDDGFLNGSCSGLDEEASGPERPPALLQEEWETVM
Method: (§4) These assays were performed as previously described. Briefly, HEK-293-derived cell lines that stably express the Glosensor cAMP reporter (Promega Corp.)[30] and PTHR1, a PTHR1 variant, or PTHR2 were seeded into white sided 96-well plates (50,000 cells/well) and grown to confluency. Confluent monolayers of cells were pre-incubated with CO2 independent medium containing D-luciferin (0.5 mM) at 37 °C until a stable baseline level of luminescence was established (20 min). Varying concentrations of ligands were then added, and the time course of luminescence response was recorded using BioTek plate reader. The maximal luminescence response (observed 12–16 min after ligand addition) was used to construct dose-response data sets (Table 1, Supplementary Fig. 6).
as §3
Supplementary Figure 1. […]
GFP variant known as pHluorin2 engrafted into the receptor(ref. 19, main text). c) HEK293 cells stably expressing PTHR1-GFP were treated with varied doses of the indicated peptides or conjugates and activation was assessed by measuring luminescence from a cAMP-activated luciferase variant. Values listed represent EC50 values (mean ± SD). Each value comes from ≥ 3 independent experiments. Further details, including the number of replicates for each measurement and the normalized maximal responses induced, are reported in Supplementary Table 1. […]
than 5% of the maximal response induced for that cell line.
Peptide or conjugate PTHR1GFP

hPTHR2 = target: T3, hPTHR2 (Homo sapiens, UniProt P49190); assay: cAMP response (GloSensor luminescence), HEK293 stably expressing hPTHR2; assay type: cell-based; conditions: for EC50: peak GloSensor luminescence, mean ± SD, n = 3-4, read-out: EC50, cAMP induction
T3 construct: expressed in transfected cells
Method: as §4, §3

blood ionized calcium = assay: Calcemic response in mice (blood ionized calcium); assay type: in vivo, mouse; conditions: for iCa measurement, blood ionized calcium: individual mouse
Method: Fig. 5 VHH conjugation potentiates an in vivo response. a Schematic of the experiment performed in mice. b Measurement of blood ionized calcium levels in mice injected with PTH and conjugates. Data presented is from a single experiment. The double line break represents a discontinuity in the Y-axis. Mice (CD1 females, 11 weeks) were injected subcutaneously with the indicated ligand (dose = 35 nmol/kg). Blood was drawn at the indicated time points and analyzed for ionized calcium levels. Data points indicate mean ± standard error of the mean (SEM), n = 4. A two-sided t-test without corrections for multiple comparisons was used for comparisons. *p = 0.005 vs. vehicle. ^#p = 0.015 vs. vehicle. ^●p = 0.038 vs. M-PTH(1-14). °p = 0.008 vs. M-PTH(1-14). The sequence of M-PTH(1-14) used here differs from PTH(1-14) in Fig. 2 and is UVUEIQLMHQXAKW where U is Aib and X is homoarginine. Source data are provided in the Source Data File. […] Traces for the calcemic responses of individual mice is found in Supplementary Fig. 18. Source data can be found in the Source Data file.
Mice (CD1 female, age 11 weeks) were treated in accordance with the ethical guidelines adopted by Massachusetts General Hospital. […] Peptides and conjugates were administered at doses that allowed for differentiation between compounds with differing levels of in vivo activity. Statistical analyses were performed assuming Gaussian distribution of data. Mice (n = 4 per compound) were injected subcutaneously with vehicle (10 mM citric acid/150 mM NaCl/0.05% Tween-80, pH 5.0) or vehicle containing PTH or conjugate at a dose of 35 nmol/kg body weight. […] Blood was withdrawn just before injection (t = 0) or at times thereafter. Tail vein blood was collected and immediately analyzed. Blood Ca^2+ concentration was measured with a Siemens RapidLab 348 Ca2+/pH analyzer.

hPTHR1 = target: T4, hPTHR1 (Homo sapiens, UniProt Q03431); assay: cAMP response (GloSensor luminescence), HEK293 stably expressing human PTHR1 (GP2.3); assay type: cell-based; conditions: human PTHR1 cells
T4 construct: expressed in transfected cells; host or cells: HEK293 (clone GP2.3) with GloSensor cAMP reporter
T4 sequence (Q03431 27-593): T2 sequence (Q03431 27-593)
Method: as §1, §2, §3

T3 sequence (P49190 25-550): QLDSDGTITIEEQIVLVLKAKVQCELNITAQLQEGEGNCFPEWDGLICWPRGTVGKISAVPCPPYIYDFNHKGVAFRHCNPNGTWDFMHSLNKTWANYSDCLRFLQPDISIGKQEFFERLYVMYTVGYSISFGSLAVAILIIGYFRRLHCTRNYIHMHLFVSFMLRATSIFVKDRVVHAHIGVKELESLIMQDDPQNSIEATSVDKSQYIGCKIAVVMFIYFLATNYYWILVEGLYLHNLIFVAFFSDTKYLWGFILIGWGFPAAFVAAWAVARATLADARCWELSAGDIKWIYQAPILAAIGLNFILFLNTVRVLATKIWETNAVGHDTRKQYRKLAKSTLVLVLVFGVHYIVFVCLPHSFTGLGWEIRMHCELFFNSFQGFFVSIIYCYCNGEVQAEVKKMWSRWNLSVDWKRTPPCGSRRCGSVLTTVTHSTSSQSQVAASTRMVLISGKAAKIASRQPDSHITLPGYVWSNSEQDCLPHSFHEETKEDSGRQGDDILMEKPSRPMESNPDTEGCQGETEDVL

Compound: CC[C@H](C)[C@H](NC(=O)[C@H](CCC(=O)O)NC(=O)C(C)(C)NC(=O)[C@@H](NC(=O)[C@H](C)N)C(C)C)C(=O)N[C@@H](CCC(N)=O)C(=O)N[C@@H](CC(C)C)C(=O)N[C@@H](CCSC)C(=O)N[C@@H](Cc1c[nH]cn1)C(=O)N[C@@H](CCC(N)=O)C(=O)N[C@@H](CCCNC(=N)N)C(=O)N[C@@H](CS)C(N)=O [PTH(1-11)] (H-AV[Aib]EIQLMHQRC-NH2)
EC50 (PTHR1YFPΔECD): 246 nM
EC50 (PTHR1GFP): 79 ± 45 nM
response at 100 uM (hPTHR2; 100 uM): 20%
EC50 (hPTHR2): > 100000 nM

Compound: CC[C@H](C)[C@H](NC(=O)[C@H](CCC(=O)O)NC(=O)[C@H](CO)NC(=O)[C@@H](NC(=O)[C@@H](N)CO)C(C)C)C(=O)N[C@@H](CCC(N)=O)C(=O)N[C@@H](CC(C)C)C(=O)N[C@@H](CCSC)C(=O)N[C@@H](Cc1c[nH]cn1)C(=O)N[C@@H](CC(N)=O)C(=O)N[C@@H](CC(C)C)C(=O)NCC(=O)N[C@@H](CCCCN)C(=O)N[C@@H](Cc1c[nH]cn1)C(=O)N[C@@H](CC(C)C)C(=O)N[C@@H](CC(N)=O)C(=O)N[C@@H](CO)C(=O)N[C@@H](CCSC)C(=O)N[C@@H](CCC(=O)O)C(=O)N[C@@H](CCCNC(=N)N)C(=O)N[C@H](C(=O)N[C@@H](CCC(=O)O)C(=O)N[C@@H](Cc1c[nH]c2ccccc12)C(=O)N[C@@H](CC(C)C)C(=O)N[C@@H](CCCNC(=N)N)C(=O)N[C@@H](CCCCN)C(=O)N[C@@H](CCCCN)C(=O)N[C@@H](CC(C)C)C(=O)N[C@@H](CCC(N)=O)C(=O)N[C@@H](CC(=O)O)C(=O)N[C@H](C(=O)N[C@@H](Cc1c[nH]cn1)C(=O)N[C@@H](CC(N)=O)C(=O)N[C@@H](Cc1ccccc1)C(=O)N[C@@H](CS)C(N)=O)C(C)C)C(C)C [PTH(1-34)]
EC50 (PTHR1YFPΔECD): > 500 nM and 689 nM
EC50 (PTHR1GFP): 0.4 ± 0.8 nM
EC50 (hPTHR2): 1.45 ± 2.42 nM

Compound: UVUEIQLMHQXAKW [M-PTH(1-14), modified PTH(1-14) analog used in mice, UVUEIQLMHQXAKW, U is Aib and X is homoarginine]
blood ionized calcium response (blood ionized calcium; 35 nmol/kg s.c., CD1 female mice, n = 4, single experiment): little if any activity
iCa measurement, blood ionized calcium (blood ionized calcium; 1 h after 35 nmol/kg s.c., 1st of 4 in group (mouse # 5, 9, 13)): 1.36 mM
iCa measurement, blood ionized calcium (blood ionized calcium; 1 h after 35 nmol/kg s.c., 2nd of 4 in group (mouse # 6, 10, 14)): 1.34 mM
iCa measurement, blood ionized calcium (blood ionized calcium; 1 h after 35 nmol/kg s.c., 3rd of 4 in group (mouse # 7, 11, 15)): 1.29 mM
iCa measurement, blood ionized calcium (blood ionized calcium; 1 h after 35 nmol/kg s.c., 4th of 4 in group (mouse # 8, 12, 16)): 1.33 mM
iCa measurement, blood ionized calcium (blood ionized calcium; 2 h after 35 nmol/kg s.c., 1st of 4 in group (mouse # 5, 9, 13)): 1.31 mM
iCa measurement, blood ionized calcium (blood ionized calcium; 2 h after 35 nmol/kg s.c., 2nd of 4 in group (mouse # 6, 10, 14)): 1.32 mM
iCa measurement, blood ionized calcium (blood ionized calcium; 2 h after 35 nmol/kg s.c., 3rd of 4 in group (mouse # 7, 11, 15)): 1.27 mM
iCa measurement, blood ionized calcium (blood ionized calcium; 2 h after 35 nmol/kg s.c., 4th of 4 in group (mouse # 8, 12, 16)): 1.28 mM
ionized Ca, group value quoted by reviewer (blood ionized calcium; 2h after injection, 35 nmol/kg s.c.): 1.29 mM
iCa measurement, blood ionized calcium (blood ionized calcium; 4 h after 35 nmol/kg s.c., 1st of 4 in group (mouse # 5, 9, 13)): 1.31 mM
iCa measurement, blood ionized calcium (blood ionized calcium; 4 h after 35 nmol/kg s.c., 2nd of 4 in group (mouse # 6, 10, 14)): 1.33 mM
iCa measurement, blood ionized calcium (blood ionized calcium; 4 h after 35 nmol/kg s.c., 3rd of 4 in group (mouse # 7, 11, 15)): 1.29 mM
iCa measurement, blood ionized calcium (blood ionized calcium; 4 h after 35 nmol/kg s.c., 4th of 4 in group (mouse # 8, 12, 16)): 1.29 mM
iCa measurement, blood ionized calcium (blood ionized calcium; 8 h after 35 nmol/kg s.c., 1st of 4 in group (mouse # 5, 9, 13)): 1.33 mM
iCa measurement, blood ionized calcium (blood ionized calcium; 8 h after 35 nmol/kg s.c., 2nd of 4 in group (mouse # 6, 10, 14)): 1.30 mM
iCa measurement, blood ionized calcium (blood ionized calcium; 8 h after 35 nmol/kg s.c., 3rd of 4 in group (mouse # 7, 11, 15)): 1.28 mM
iCa measurement, blood ionized calcium (blood ionized calcium; 8 h after 35 nmol/kg s.c., 4th of 4 in group (mouse # 8, 12, 16)): 1.30 mM

cAMP activity (hPTHR1): reduction in potency
Compound: G3-PTH(1-14): PTH(1-14) analog with an N-terminal triglycine extension (SVSEIQLMHNLGKH; N-terminal triglycine extension; UniProt P01270 32-45, looked up, fragment)
